Laboratory results: patent publication US11459323B2, “Monocyclic β-lactam compound for treating bacterial infection” (MEDSHINE DISCOVERY INC., priority 2018, dated 2022)
Values after ≈ are worked out from the molar mass of the structure shown.

Assays:
P. aeruginosa ATCC 35151 = assay: MIC by micro-liquid dilution method (CLSI); type: cell-based; conditions: Pseudomonas aeruginosa, ATCC35151
[1] = tested on: Pseudomonas aeruginosa PA14; assay: Lungs of immunosuppressed mice infected with Pseudomonas aeruginosa (2), lung bacterial load; type: in vivo; conditions: 24 hours after infection, day, ip at 2 h, 4 h, 6 h, 8 h
Experimental: Pseudomonas aeruginosa PA14. 60 mice were intraperitoneally injected with 150 mg/kg cyclophosphamide on day 1 and day 4 to give immunosuppressed mice. […] [table] The mice were injected with 50 μL of bacterial solution (2×10^3 CFU) through the airway. 2 hours after the infection, 4 mice in the model group was sacrificed by removing cervical vertebra. Two hours after infection, the drugs were administered by groups, and the mice were administered intraperitoneally once at 2 hours, 4 hours, 6 hours, and 8 hours, a total of 4 times. Mice of each group were sacrificed by removing cervical vertebra 24 hours after infection, lung and kidney tissues were taken aseptically and put into a sterilized tissue homogenate tube, weighed, and an appropriate amount of normal saline (NS) was added, the mixture was homogenized by a homogenizer for 1 min, the lung tissues of the model group were diluted 10^4, 10^5, 10^6 times, the lung tissues of each administration group were diluted 10, 100 times, the kidney tissues of the model group were diluted 10^2, 10^3, 10^4 times, and the lung tissues of each administration group were diluted 10 times, the obtained mixtures were coated on TSA plates using spiral coater, then incubated at 37° C. overnight, and the CFU was counted with a colony counter. Graphpad Prism mapping software was used to make scatter plots of lung tissue CFU. SPSS19.0 software was used to count CFU and average body weight, and analysis of variance was used to analyze differences between groups.

[2] = tested on: Acinetobacter baumannii C270; assay: MIC on clinically isolated bacteria; type: cell-based; conditions: Acinetobacter baumannii C270; read-out: Minimum Inhibitory Concentration (MIC)
Excerpt: (§1) Twenty-five strains of clinically isolated Acinetobacter baumannii and twenty-seven strains of Pseudomonas aeruginosa were respectively selected and used to determine the minimum inhibitory concentration (MIC) of the compounds by micro-liquid dilution method according to the Institute of Clinical and Laboratory Standard (CLSI) requirements.

[3] = tested on: Acinetobacter baumannii C361; assay: MIC on clinically isolated bacteria; type: cell-based; conditions: Acinetobacter baumannii C361; read-out: Minimum Inhibitory Concentration (MIC)
Excerpt: as §1

[4] = tested on: Pseudomonas aeruginosa W42; assay: MIC on clinically isolated bacteria; type: cell-based; conditions: read-out: MIC
Excerpt: as §1

[5] = tested on: Acinetobacter baumannii C403; assay: MIC on clinically isolated bacteria; type: cell-based; conditions: Acinetobacter baumannii C403; read-out: Minimum Inhibitory Concentration (MIC)
Excerpt: as §1

[6] = tested on: Pseudomonas aeruginosa W29; assay: MIC on clinically isolated bacteria; type: cell-based; conditions: read-out: MIC
Excerpt: as §1

[7] = tested on: Acinetobacter baumannii C394; assay: MIC on clinically isolated bacteria; type: cell-based; conditions: Acinetobacter baumannii C394; read-out: Minimum Inhibitory Concentration (MIC)
Excerpt: as §1

[8] = tested on: Pseudomonas aeruginosa W24; assay: MIC on clinically isolated bacteria; type: cell-based; conditions: read-out: MIC
Excerpt: as §1

[9] = tested on: Pseudomonas aeruginosa C745; assay: MIC on clinically isolated bacteria; type: cell-based; conditions: read-out: MIC
Excerpt: as §1

[10] = tested on: Pseudomonas aeruginosa W35; assay: MIC on clinically isolated bacteria; type: cell-based; conditions: read-out: MIC
Excerpt: as §1

[11] = tested on: Acinetobacter baumannii C281; assay: MIC on clinically isolated bacteria; type: cell-based; conditions: Acinetobacter baumannii C281; read-out: Minimum Inhibitory Concentration (MIC)
Excerpt: as §1

[12] = tested on: Acinetobacter baumannii C333; assay: MIC on clinically isolated bacteria; type: cell-based; conditions: Acinetobacter baumannii C333; read-out: Minimum Inhibitory Concentration (MIC)
Excerpt: as §1

[13] = tested on: Acinetobacter baumannii ATCC-BAA-1793; assay: MIC on Acinetobacter baumannii strains; type: cell-based; conditions: ATCCBAA1793, ATCC-BAA-1793, read-out: MIC
Excerpt: (§2) Twelve strains of Acinetobacter baumannii, A. baumannii ATCC 17978 (ATCC-BAA-1605, ATCC-BAA-1789, ATCC-BAA-1790, ATCC-BAA-1791, ATCC-BAA-1792, ATCC-BAA-1793, ATCC-BAA-1794, ATCC-BAA-1795, ATCC-BAA-1799, ATCC-BAA-1800, ATCC 19606, ATCC 17978) were used to determine the minimum inhibitory concentration (MIC) of the compounds by micro-liquid dilution method according to the Institute of Clinical and Laboratory Standard (CLSI) requirements.

[14] = tested on: Acinetobacter baumannii ATCC-BAA-1794; assay: MIC on Acinetobacter baumannii strains; type: cell-based; conditions: ATCCBAA1794, ATCC-BAA-1794, read-out: MIC
Excerpt: as §2

[15] = tested on: Acinetobacter baumannii ATCC-BAA-1605; assay: MIC on Acinetobacter baumannii strains; type: cell-based; conditions: ATCCBAA1605
Excerpt: as §2

[16] = tested on: Acinetobacter baumannii ATCC-BAA-1791; assay: MIC on Acinetobacter baumannii strains; type: cell-based; conditions: ATCCBAA1791
Excerpt: as §2

[17] = tested on: Acinetobacter baumannii ATCC 17978; assay: MIC on Acinetobacter baumannii strains; type: cell-based; conditions: ATCC17978
Excerpt: as §2

[18] = tested on: Acinetobacter baumannii ATCC 19606; assay: MIC on Acinetobacter baumannii strains; type: cell-based; conditions: ATCC19606
Excerpt: as §2

[19] = tested on: Acinetobacter baumannii ATCC-BAA-1799; assay: MIC on Acinetobacter baumannii strains; type: cell-based; conditions: ATCCBAA1799
Excerpt: as §2

[20] = tested on: Acinetobacter baumannii ATCC-BAA-1790; assay: MIC on Acinetobacter baumannii strains; type: cell-based; conditions: ATCCBAA1790, ATCC-BAA-1790, read-out: MIC
Excerpt: as §2

[21] = tested on: Acinetobacter baumannii ATCC-BAA-1789; assay: MIC on Acinetobacter baumannii strains; type: cell-based; conditions: ATCCBAA1789
Excerpt: as §2

[22] = tested on: Acinetobacter baumannii ATCC-BAA-1795; assay: MIC on Acinetobacter baumannii strains; type: cell-based; conditions: ATCCBAA1795
Excerpt: as §2

[23] = tested on: Acinetobacter baumannii ATCC-BAA-1792; assay: MIC on Acinetobacter baumannii strains; type: cell-based; conditions: ATCCBAA1792, ATCC-BAA-1792, read-out: MIC
Excerpt: as §2

[24] = tested on: Acinetobacter baumannii ATCC-BAA-1800; assay: MIC on Acinetobacter baumannii strains; type: cell-based; conditions: ATCCBAA1800, ATCC-BAA-1800, read-out: MIC
Excerpt: as §2

| SMILES | MIC [2] [µg/mL] | MIC [3] [µg/mL] | MIC [4] [µg/mL] | MIC [5] [µg/mL] | MIC [6] [µg/mL] | MIC [7] [µg/mL] | MIC [8] [µg/mL] | MIC [9] [µg/mL] | MIC [10] [µg/mL] | MIC [11] [µg/mL] | MIC [12] [µg/mL] | also measured |
| --- | --- | --- | --- | --- | --- | --- | --- | --- | --- | --- | --- | --- |
| C[C@H]1[C@H](NC(=O)/C(=N\OC(C)(C)C(=O)O)c2csc(N)n2)C(=O)N1S(=O)(=O)O [Aztreonam, reference compound] | 64 (≈ 147 µM) | 32 (≈ 73.5 µM) | 16 (≈ 36.7 µM) | 64 (≈ 147 µM) | 32 (≈ 73.5 µM) | 64 (≈ 147 µM) | 32 (≈ 73.5 µM) | 32 (≈ 73.5 µM) | 2 (≈ 4.59 µM) | 64 (≈ 147 µM) | 64 (≈ 147 µM) | MIC (P. aeruginosa ATCC 35151): ≤ 0.125 µg/mL; LOG10-of bacterial load ([1]; total dosage 100 mg/kg): 6.91 ± 1.63; MIC [13]: 64 µg/mL (≈ 147 µM); MIC [14]: 32 µg/mL (≈ 73.5 µM); MIC [15]: 128 µg/mL (≈ 294 µM); MIC [16]: 32 µg/mL (≈ 73.5 µM); MIC [17]: 32 µg/mL (≈ 73.5 µM); MIC [18]: 32 µg/mL (≈ 73.5 µM); MIC [19]: 128 µg/mL (≈ 294 µM); MIC [20]: 32 µg/mL (≈ 73.5 µM); MIC [21]: 64 µg/mL (≈ 147 µM); MIC [22]: 32 µg/mL (≈ 73.5 µM); MIC [23]: 64 µg/mL (≈ 147 µM); MIC [24]: 32 µg/mL (≈ 73.5 µM) |
| CC1(C)[C@H](NC(=O)/C(=N\O[C@@H](COc2ccc3c(c2)CN(C(=N)NCCCCN)C3)C(=O)O)c2csc(N)n2)C(=O)N1OS(=O)(=O)O [Compound 36] | 2 (≈ 2.87 µM) | 2 (≈ 2.87 µM) | 0.25 (≈ 0.358 µM) | 2 (≈ 2.87 µM) | 0.5 (≈ 0.717 µM) | 2 (≈ 2.87 µM) | 0.5 (≈ 0.717 µM) | 8 (≈ 11.5 µM) | 0.125 (≈ 0.179 µM) | 2 (≈ 2.87 µM) | 2 (≈ 2.87 µM) |  |
| CC1(C)[C@H](NC(=O)/C(=N\O[C@@H](COc2ccc3c(c2)CN(C(=N)N[C@@H]2CCCNC2)C3)C(=O)O)c2csc(N)n2)C(=O)N1OS(=O)(=O)O [Compound 41] | 2 (≈ 2.82 µM) | 1 (≈ 1.41 µM) | 0.5 (≈ 0.704 µM) | 4 (≈ 5.64 µM) | 1 (≈ 1.41 µM) | 2 (≈ 2.82 µM) | 2 (≈ 2.82 µM) | 4 (≈ 5.64 µM) | 0.5 (≈ 0.704 µM) | 2 (≈ 2.82 µM) | 2 (≈ 2.82 µM) | LOG10-of bacterial load ([1]; total dosage 20 mg/kg): 4.12 ± 1.50; LOG10-of bacterial load ([1]; total dosage 60 mg/kg): 3.65 ± 2.15 |
| CC1(C)[C@H](NC(=O)/C(=N\O[C@@H](COc2ccc3c(c2)CN(C(=N)NOCCN)C3)C(=O)O)c2csc(N)n2)C(=O)N1OS(=O)(=O)O [Compound 43] | 8 (≈ 11.7 µM) | 8 (≈ 11.7 µM) | 1 (≈ 1.46 µM) | 16 (≈ 23.3 µM) | 8 (≈ 11.7 µM) | 8 (≈ 11.7 µM) | 8 (≈ 11.7 µM) | 8 (≈ 11.7 µM) | 1 (≈ 1.46 µM) | 8 (≈ 11.7 µM) | 8 (≈ 11.7 µM) |  |
